Laboratory results published in patent US20250186467A1, “METHODS OF TREATING MEDICAL CONDITIONS USING STAMPIDINE OR A RELATED COMPOUND” (ROME Therapeutics, Inc., priority 2022, published 2025).

Assays:
[1] = tested on: interferon-stimulated gene (ISG) response; assay: In vivo decitabine challenge model; set-up: species or system C57BL/6 mice; details: stampidine 3, 15, 75 mg/kg i.p. daily with decitabine 5 mg/kg i.p., Day 0 to Day 4; spleen, liver, terminal colon
Experimental: Twenty 9-11 week old C57BL/6 mice were acclimated to the lab for at least 5 days. Stampidine was prepared in a 20% HP-b-CD in water solution for i.p. administration. Decitabine (Sigma) was dissolved in sterile PBS (pH 7.4) and dosed within 30 minutes of preparation of the solution. Doses of both stampidine and decitabine were administered i.p. once a day, every day from Day 0 to Day 4.
On Day 0, mice were split into four groups of five mice and given their first dose of decitabine (i.p., 5 mg/kg) and stampidine. Dosing groups were:
Decitabine and stampidine were administered daily from Day 0 to Day 4. All mice were euthanized 1 hour after the last dose administration on Day 4. Spleens, liver, and terminal colon were collected, along with plasma from each animal. The fold changes in interferon-stimulated gene (ISG) expression were calculated by first normalizing to GAPDH gene using the Delta CT method. The CT (gene of interest)−CT (reference gene) was calculated to generate a delta CT for all samples. The fold change was then calculated by taking the […](Delta CT(control)−Delta CT (experimental). The control in this example was the PBS control animal group. The Taqman duplex assay was used to determine levels of GAPDH v. IFIT2.

IFN-β = assay: Decitabine-stimulated human PBMC assay, IFN-β; format: cell-based; details: PBMCs with anti-CD3/anti-CD28 and 10 μM decitabine, 5 days
Experimental: EasySep buffer (32 mL, Stem Cell, cat. #20144) was used to dilute 8 mL of LRSC buffy coat (from fresh Leukopak) with gentle mixing. The diluted buffy coat (20 mL) was transferred into each of two SepMate 50 tubes, and the tubes were filled with 15 mL of Lyphoprep (Stem Cell, ct. #07851) density gradient. The SepMate tubes were then centrifuged at 1200G for 10 minutes at room temperature with the brake on. The top layer of supernatant was collected in SepMate tubes by quickly pouring it into a new 50 mL conical tube. The PBMCs were washed with EasySep buffer×2 by centrifuging at 300G for 5 minutes. The cells were resuspended in 30 mL of EasySep and centrifuged at 100G for 5 minutes with the brake off, and the platelets were removed. The cells were then resuspended in 6 mL of 1× RBC lysis buffer (InvitroGen) and incubated at 37° C. for 5 minutes. Then, 25 mL of EasySep buffer was mixed into the tube and it was centrifuged at 300G for 5 minutes. The cells were resuspended in 10 mL of EasySep buffer and the cells were then counted with Cellometer (AO/PI). The PBMCs were resuspended in RPMI1640 (ThermoFisher)+10% FBS (HyClone)+p/s at 3×10^6/mL. The PBMCs (100 μL, 300 k PBMCs) were then seeded in a 96-well flat bottom microplate (Corning) that had been precoated with 100 μL of anti-CD3 antibody (10 μg/mL in PBS, Biolegend) or PBS at 4° C., one day before the assay was commenced. […]

THP1-Dual KO-TREX1 cells = assay: CellTiter-Glo cell viability in THP1 TREX1 KO cells; format: cell-based; details: highest dose, with 1 μM 5-aza-2′-deoxycytidine, five days
Experimental: THP1 Dual TREX1 KO cells were purchased from Invivogen. The THP1-Dual™ KO-TREX1 cells were cultured in RPMI 1640, 10% heat-inactivated fetal bovine serum, 25 mM HEPES, 10 μg/mL Blasticidin, and 100 μg/mL Zeocin. THP1-Dual™ KO-TREX1 cells were treated with a dose titration of test compound in the presence of 1 μM 5-aza-2′-deoxycytidine (Sigma, cat #189825). Type 1 Interferon and cell viability were assessed after five days of treatment.
Stock solution of test compound was prepared in DMSO followed by a three-fold dilution in DMSO. Additional 50× dilution was prepared in cell culture media for each dilution. 10 μL of diluted test compound was then added to a 384-well plate.
THP1-Dual™ KO-TREX1 cells were treated with 1 μM 5-aza-2′-deoxycytidine. THP1-Dual™ KO-TREX1 cells (50 μL) were added to each well of the 384-well plate containing test compound titration at 10,000 cells/well. Cells were incubated at 37° C., 5% CO2 in a humidified incubator for five days. […] Luminescence was detected on a plate reader according to manufacturer's instructions. […]
The remaining cells were assessed for cell viability by adding 30 μl of CellTiter-Glo (Promega, 09683) solution to each well, and placed on a shaker for 10 minutes at room temperature. Luminescence was detected on a plate reader, according to manufacturer's instructions. […]

COC(=O)[C@H](C)N[P@](=O)(OC[C@@H]1C=C[C@H](n2cc(C)c(=O)[nH]c2=O)O1)Oc1ccc(Br)cc1 [Stampidine, methyl ((S)-(4-bromophenoxy)(((2S,5R)-5-(5-methyl-2,4-dioxo-3,4-dihydropyrimidin-1(2H)-yl)-2,5-dihydrofuran-2-yl)methoxy)phosphoryl)-L-alaninate]
change in ISG response [1]: showed the change in ISG response which was most prominent in the spleen tissue | inhibition of IFN-β (IFN-β): showed inhibition of IFN-β | reduction in cell viability (THP1-Dual KO-TREX1 cells): ~15%
